“And” between values parts separate entries of the source, which are not always exact repeats. Identical values can stand only once.
Key:
[1] = molecular target: T1, 5-hydroxytryptamine receptor 1A (Homo sapiens, UniProt P08908)
T1 sequence (P08908 whole entry): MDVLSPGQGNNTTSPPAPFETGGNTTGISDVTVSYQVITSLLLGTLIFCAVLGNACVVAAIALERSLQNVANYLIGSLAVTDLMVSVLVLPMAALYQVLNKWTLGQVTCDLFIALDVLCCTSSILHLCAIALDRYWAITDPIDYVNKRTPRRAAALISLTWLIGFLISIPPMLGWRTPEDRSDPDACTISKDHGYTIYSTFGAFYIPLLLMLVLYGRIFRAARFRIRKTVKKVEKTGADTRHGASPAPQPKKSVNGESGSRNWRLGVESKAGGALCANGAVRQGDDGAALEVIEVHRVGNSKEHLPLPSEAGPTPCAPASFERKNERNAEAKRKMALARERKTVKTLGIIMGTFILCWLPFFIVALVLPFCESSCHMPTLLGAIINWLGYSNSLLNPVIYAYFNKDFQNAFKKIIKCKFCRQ

[2] = molecular target: T2, Type-1 angiotensin II receptor (Homo sapiens, UniProt P30556)
T2 sequence (P30556 whole entry): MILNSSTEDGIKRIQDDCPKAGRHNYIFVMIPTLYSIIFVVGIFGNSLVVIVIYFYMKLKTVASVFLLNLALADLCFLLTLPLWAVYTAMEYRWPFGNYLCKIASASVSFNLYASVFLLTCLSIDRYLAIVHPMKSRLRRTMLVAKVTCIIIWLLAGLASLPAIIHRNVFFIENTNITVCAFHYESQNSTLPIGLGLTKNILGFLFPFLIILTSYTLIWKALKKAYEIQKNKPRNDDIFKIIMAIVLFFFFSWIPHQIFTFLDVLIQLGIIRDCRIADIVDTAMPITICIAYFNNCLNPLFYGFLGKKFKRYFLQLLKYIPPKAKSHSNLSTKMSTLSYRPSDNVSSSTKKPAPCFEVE

[3] = molecular target: T3, Muscarinic acetylcholine receptor M1 (Homo sapiens, UniProt P11229); format: functional, cell-based
T3 sequence (P11229 whole entry): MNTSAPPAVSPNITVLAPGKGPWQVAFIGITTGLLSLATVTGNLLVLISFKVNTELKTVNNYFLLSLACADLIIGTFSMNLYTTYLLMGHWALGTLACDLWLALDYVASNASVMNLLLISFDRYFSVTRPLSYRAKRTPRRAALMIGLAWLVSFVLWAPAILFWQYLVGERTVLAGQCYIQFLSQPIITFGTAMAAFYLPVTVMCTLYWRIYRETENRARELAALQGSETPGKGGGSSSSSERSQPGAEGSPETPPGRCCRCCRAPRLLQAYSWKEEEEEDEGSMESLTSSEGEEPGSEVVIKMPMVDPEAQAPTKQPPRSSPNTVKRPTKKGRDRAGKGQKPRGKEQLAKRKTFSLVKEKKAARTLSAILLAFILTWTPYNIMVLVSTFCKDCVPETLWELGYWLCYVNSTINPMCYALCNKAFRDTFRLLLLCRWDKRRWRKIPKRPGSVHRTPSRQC

[4] = molecular target: T4, Thromboxane A2 receptor (Homo sapiens, UniProt P21731); format: functional, cell-based
T4 sequence (P21731 whole entry): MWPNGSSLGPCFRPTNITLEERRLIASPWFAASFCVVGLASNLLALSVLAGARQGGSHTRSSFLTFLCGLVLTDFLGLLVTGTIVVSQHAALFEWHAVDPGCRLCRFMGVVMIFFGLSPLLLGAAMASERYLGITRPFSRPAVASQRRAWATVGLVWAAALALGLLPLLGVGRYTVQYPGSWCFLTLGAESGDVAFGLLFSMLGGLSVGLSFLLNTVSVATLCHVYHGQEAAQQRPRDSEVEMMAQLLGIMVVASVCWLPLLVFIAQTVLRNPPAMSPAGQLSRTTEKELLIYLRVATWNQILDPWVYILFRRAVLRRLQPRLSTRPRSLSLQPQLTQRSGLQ
Further: assay procedure not described here.

Structure (SMILES): COc1ccccc1N1CCN(CCCNc2cc(=O)n(C)c(=O)n2C)CC1
- AC50 [1]: 0.26 µM

Structure (SMILES): CCCCc1ncc(/C=C(\Cc2cccs2)C(=O)O)n1Cc1ccc(C(=O)O)cc1 [EPROSARTAN]
- AC50 [2]: 0.005 µM and 0.0055 µM

Structure (SMILES): CC(C[N+](C)(C)C)OC(N)=O (centres undefined) [BETHANECHOL]
- AC50 [3]: 26 µM

Structure (SMILES): CC(C)OC(=O)CCC/C=C\C[C@@H]1[C@@H](CC[C@@H](O)CCc2ccccc2)[C@H](O)C[C@@H]1O [LATANOPROST]
- AC50 [4]: > 10 µM

Reference: ChEMBL document CHEMBL5291721, “A preclinical secondary pharmacology resource illuminates target-adverse drug reaction associations of marketed drugs” (Nat Commun, 2023)
